According to patent publication US20230348426A1, “OXOPYRROLIDINE FPR2 AGONISTS” (Bristol-Myers Squibb Company, priority 2020, published 2023):

Columns and labels:
[1] = target: human FPR1 (Homo sapiens (Human), UniProt P21462); experiment: FPR1 cyclic adenosine monophosphate (cAMP) assay; assay type: cell-based; conditions: CHO cells overexpressing human FPR1; forskolin 10 µM; inhibition of cAMP production; read-out: hFPR1 cAMP EC50
Text: (§1) N-formyl peptide receptors (FPRs) are a family of chemo attractant receptors that facilitate leukocyte response during inflammation. FPRs belong to the seven-transmembrane G protein-coupled receptor superfamily and are linked to inhibitory G-proteins (Gi). Three family members (FPR1, FPR2 and FPR3) have been identified in humans and are predominantly found in myeloid cells with varied distribution and have also been reported in multiple organs and tissues. After agonist binding, the FPRs activate a multitude of physiological pathways, such as intra cellular signaling transduction, Ca^2+ mobilization and transcription. The family interacts with a diverse set of ligands that includes proteins, polypeptides and fatty acid metabolites which activate both pro-inflammatory and pro-resolution downstream responses. FPR2 and FPR1 Cyclic Adenosine Monophosphate (cAMP) Assays were used to measure the activity of the compounds in this patent.
FPR2 and FPR1 Cyclic Adenosine Monophosphate (cAMP) Assays. A mixture of forskolin (5 µM final for FPR2 or 10 µM final for FPR1) and IBMX (200 µM final) were added to 384-well Proxiplates (Perkin-Elmer) pre-dotted with test compounds in DMSO (1% final) at final concentrations in the range of 0.020 nM to 100 µM. Chinese Hamster Ovary cells (CHO) overexpressing human FPR1 or human FPR2 receptors were cultured in F-12 (Ham’s) medium supplemented with 10% qualified FBS, 250 µg/ml zeocin and 300 µg/ml hygromycin (Life Technologies). Reactions were initiated by adding 2,000 human FPR2 cells per well or 4,000 human FPR1 cells per well in Dulbecco’s PBS (with calcium and magnesium) (Life Technologies) supplemented with 0.1% BSA (Perkin-Elmer). The reaction mixtures were incubated for 30 min at room temperature. The level of intracellular cAMP was determined using the HTRF HiRange cAMP assay reagent kit (Cisbio) according to manufacturer’s instruction. Solutions of cryptate conjugated anti-cAMP and d2 flurorophore-labelled cAMP were made in a supplied lysis buffer separately. Upon completion of the reaction, the cells were lysed with equal volume of the d2-cAMP solution and anti-cAMP solution. […] The potency and activity of a compound to inhibit cAMP production was then determined by fitting to a 4-parametric logistic equation from a plot of cAMP level versus compound concentrations.

[2] = target: human FPR2 (Homo sapiens (Human), UniProt P25090); experiment: FPR2 cyclic adenosine monophosphate (cAMP) assay; assay type: cell-based; conditions: CHO cells overexpressing human FPR2; forskolin 5 µM; inhibition of cAMP production; read-out: hFPR2 cAMP2 EC50
Text: as §1
FPR2 and FPR1 Cyclic Adenosine Monophosphate (cAMP) Assays. A mixture of forskolin (5 µM final for FPR2 or 10 µM final for FPR1) and IBMX (200 µM final) were added to 384-well Proxiplates (Perkin-Elmer) pre-dotted with test compounds in DMSO (1% final) at final concentrations in the range of 0.020 nM to 100 µM. Chinese Hamster Ovary cells (CHO) overexpressing human FPR1 or human FPR2 receptors were cultured in F-12 (Ham’s) medium supplemented with 10% qualified FBS, 250 µg/ml zeocin and 300 µg/ml hygromycin (Life Technologies). Reactions were initiated by adding 2,000 human FPR2 cells per well or 4,000 human FPR1 cells per well in Dulbecco’s PBS (with calcium and magnesium) (Life Technologies) supplemented with 0.1% BSA (Perkin-Elmer). The reaction mixtures were incubated for 30 min at room temperature. The level of intracellular cAMP was determined using the HTRF HiRange cAMP assay reagent kit (Cisbio) according to manufacturer’s instruction. Solutions of cryptate conjugated anti-cAMP and d2 flurorophore-labelled cAMP were made in a supplied lysis buffer separately. Upon completion of the reaction, the cells were lysed with equal volume of the d2-cAMP solution and anti-cAMP solution. After a 1-h room temperature incubation, time-resolved fluorescence intensity was measured using the Envision (Perkin-Elmer) at 400 nm excitation and dual emission at 590 nm and 665 nm. A calibration curve was constructed with an external cAMP standard at concentrations ranging from 1 µM to 0.1 pM by plotting the fluorescent intensity ratio from 665 nm emission to the intensity from the 590 nm emission against cAMP concentrations. The potency and activity of a compound to inhibit cAMP production was then determined by fitting to a 4-parametric logistic equation from a plot of cAMP level versus compound concentrations.

human FPR1, sequence (P21462 whole entry): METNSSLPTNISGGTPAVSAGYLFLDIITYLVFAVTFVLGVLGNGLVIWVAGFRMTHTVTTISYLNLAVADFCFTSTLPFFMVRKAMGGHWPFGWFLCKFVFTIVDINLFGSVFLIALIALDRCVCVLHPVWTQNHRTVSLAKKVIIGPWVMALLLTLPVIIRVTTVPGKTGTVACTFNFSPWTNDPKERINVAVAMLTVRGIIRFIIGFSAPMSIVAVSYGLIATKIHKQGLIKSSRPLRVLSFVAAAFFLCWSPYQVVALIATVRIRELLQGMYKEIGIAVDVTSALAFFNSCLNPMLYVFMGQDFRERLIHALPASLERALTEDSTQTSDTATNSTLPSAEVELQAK
human FPR2, sequence (P25090 whole entry): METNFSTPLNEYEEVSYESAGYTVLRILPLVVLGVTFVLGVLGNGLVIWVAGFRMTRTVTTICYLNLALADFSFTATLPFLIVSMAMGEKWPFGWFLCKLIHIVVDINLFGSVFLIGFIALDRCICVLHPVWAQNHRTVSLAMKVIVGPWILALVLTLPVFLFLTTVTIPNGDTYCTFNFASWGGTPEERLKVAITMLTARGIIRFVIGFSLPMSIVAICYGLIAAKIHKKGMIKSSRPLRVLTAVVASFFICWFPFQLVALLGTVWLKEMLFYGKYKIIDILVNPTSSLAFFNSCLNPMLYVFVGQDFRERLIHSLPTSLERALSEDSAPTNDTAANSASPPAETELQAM

EC50 [1] | EC50 [2] | SMILES
30 nM | 5.5 nM | COCCn1cccc(N2C[C@@H](c3c(F)cc(OC)cc3F)[C@H](NC(=O)c3ccc(OC(F)F)cc3)C2=O)c1=O [Example 36]
16 nM | 8.9 nM | COCCn1cccc(N2C[C@@H](c3c(F)cc(OC)cc3F)[C@H](NC(=O)c3ccc(OC(F)(F)F)cc3)C2=O)c1=O [Example 37]
18 nM | 5.1 nM | CCn1cccc(N2C[C@@H](c3c(F)cc(OC)cc3F)[C@H](NC(=O)c3ccc(OC(F)F)cc3)C2=O)c1=O [Example 38]
2600 nM | 0.6 nM | COc1cc(N2C[C@@H](c3c(F)cc(OC)cc3F)[C@H](NC(=O)c3ccc(Cl)cc3)C2=O)nc(N2C[C@@H]3C[C@H]2CN3C)c1 [Example 40]
110 nM | 0.6 nM | COCC(CN)n1cccc(N2C[C@@H](c3c(F)cc(OC)cc3F)[C@H](NC(=O)c3ccc(OC(F)F)cc3)C2=O)c1=O (some centres unmarked) [Example 41]
730 nM | 0.7 nM | COc1cc(F)c([C@@H]2CN(c3nc(N4C[C@@H](C)N(C)[C@@H](C)C4)ccc3F)C(=O)[C@H]2NC(=O)c2ccc(OC(F)F)cc2)c(F)c1 [Example 42]
10 nM | 1 nM | COCC(CN)n1cccc(N2C[C@@H](c3c(F)cc(OC)cc3F)[C@H](NC(=O)c3ccc(OC(F)F)cc3)C2=O)c1=O (some centres unmarked) [Example 44]
4.3 nM | 1 nM | COc1ccc([C@@H]2CN(c3cccn(CC(F)F)c3=O)C(=O)[C@H]2NC(=O)c2ccc(OC(F)(F)F)cc2)c(F)c1 [Example 45]
2 nM | 1 nM | COc1cc(F)c([C@@H]2CN(c3nc(N4CCC4=O)ccc3F)C(=O)[C@H]2NC(=O)c2ccc(OC(F)F)cc2)c(F)c1 [Example 46]
150 nM | 1.1 nM | COc1cc(F)c([C@@H]2CN(c3cccn(CC(O)C(F)(F)F)c3=O)C(=O)[C@H]2NC(=O)c2ccc(OC(F)(F)F)cc2)c(F)c1 (some centres unmarked) [Example 47]
940 nM | 1.1 nM | COc1cc(F)c([C@@H]2CN(c3cccc(N4C[C@@H](C)N(C)[C@@H](C)C4)n3)C(=O)[C@H]2NC(=O)c2ccc(OC(F)F)cc2)c(F)c1 [Example 48]
2000 nM | 1.1 nM | COc1cc(N2C[C@@H]3C[C@H]2CN3C)nc(N2C(=O)[C@@H](NC(=O)c3ccc(Cl)cc3)[C@H](c3c(F)cc(OC)cc3F)[C@H]2C)c1 [Example 49]
1700 nM | 1.2 nM | COc1cc(F)c([C@@H]2CN(c3nc(N4C[C@H]5C[C@@H]4CN5C)ccc3F)C(=O)[C@H]2NC(=O)c2ccc(OC(F)F)cc2)c(F)c1 [Example 50]
5500 nM | 1.2 nM | COc1cc(N2C[C@@H]3C[C@H]2CN3C)nc(N2C(=O)[C@@H](NC(=O)c3ccc(OC(F)F)cc3)[C@H](c3c(F)cc(OC)cc3F)[C@@H]2C)c1 [Example 51]
27 nM | 1.3 nM | COc1cc(F)c([C@@H]2CN(c3cccn(C(F)F)c3=O)C(=O)[C@H]2NC(=O)c2ccc(OC(F)F)cc2)c(F)c1 [Example 52]
2.3 nM | 1.4 nM | COCCn1cccc(N2C[C@@H](c3ccc(OC)cc3F)[C@H](NC(=O)c3ccc(OC(F)(F)F)cc3)C2=O)c1=O [Example 53]
820 nM | 1.4 nM | COc1cc(F)c([C@@H]2CN(c3nc(N4CCN(C)CC4)ccc3F)C(=O)[C@H]2NC(=O)c2ccc(OC(F)F)cc2)c(F)c1 [Example 54]
8.6 nM | 1.4 nM | COc1ccc([C@@H]2CN(c3cccn(CCC(F)(F)F)c3=O)C(=O)[C@H]2NC(=O)c2ccc(OC(F)F)cc2)c(F)c1 [Example 55]
4 nM | 1.4 nM | COCCn1cccc(N2C[C@@H](c3ccc(OC)cc3F)[C@H](NC(=O)c3ccc(OC(F)(F)F)cc3)C2=O)c1=O [Example 56]

EC50 [1] | EC50 [2] | SMILES
0.066 nM | 1.4 nM | COc1ccc([C@@H]2CN(c3c(C)ccn(CC4CC4)c3=O)C(=O)[C@H]2NC(=O)c2ccc(OC(F)(F)F)cc2)cc1 [Example 57]
3.5 nM | 1.5 nM | COc1cc(F)c([C@@H]2CN(c3nc(N4CCOCC4=O)ccc3F)C(=O)[C@H]2NC(=O)c2ccc(OC(F)(F)F)cc2)c(F)c1 [Example 58]
6.6 nM | 1.5 nM | COc1ccc([C@@H]2CN(c3cccn(CC(F)F)c3=O)C(=O)[C@H]2NC(=O)c2ccc(OC(F)F)cc2)c(F)c1 [Example 59]
2.6 nM | 1.6 nM | COCCn1cccc(N2C[C@@H](c3ccc(OC)cc3)[C@H](NC(=O)c3ccc(OC(F)(F)F)cc3)C2=O)c1=O [Example 60]
110 nM | 1.6 nM | COc1cc(F)c([C@@H]2CN(c3nc(NC4CCOC4)ccc3F)C(=O)[C@H]2NC(=O)c2ccc(OC(F)(F)F)cc2)c(F)c1 (some centres unmarked) [Example 62]
16 nM | 1.7 nM | COc1ccc([C@@H]2CN(c3cccn(CCO)c3=O)C(=O)[C@H]2NC(=O)c2ccc(OC(F)(F)F)cc2)c(F)c1 [Example 63]
7.2 nM | 1.7 nM | COc1ccc([C@@H]2CN(c3cccn(CCO)c3=O)C(=O)[C@H]2NC(=O)c2ccc(OC(F)(F)F)cc2)cc1 [Example 64]
180 nM | 1.7 nM | COc1cc(F)c([C@@H]2CN(c3ccnc(N4C[C@@H]5C[C@H]4CN5C)c3C(F)(F)F)C(=O)[C@H]2NC(=O)c2ccc(OC(F)F)cc2)c(F)c1 [Example 65]
49 nM | 1.8 nM | COc1cc(F)c([C@@H]2CN(c3nc(N4C(=O)C5CCCC54)ccc3F)C(=O)[C@H]2NC(=O)c2ccc(OC(F)F)cc2)c(F)c1 (some centres unmarked) [Example 66]
4.4 nM | 1.8 nM | CCn1cccc(N2C[C@@H](c3ccc(Cl)cc3)[C@H](NC(=O)c3ccc(OC(F)(F)F)cc3)C2=O)c1=O [Example 67]
4.2 nM | 1.9 nM | O=C(N[C@@H]1C(=O)N(c2cccn(CC(F)F)c2=O)C[C@H]1c1ccc(Cl)cc1)c1ccc(OC(F)(F)F)cc1 [Example 69]
> 10000 nM | 1.9 nM | COc1cc(N2C[C@@H]3C[C@H]2CN3C)nc(N2C(=O)[C@@H](NC(=O)c3ccc(Cl)cc3)[C@H](c3c(F)cc(OC)cc3F)[C@@H]2C)c1 [Example 70]
290 nM | 1.9 nM | COc1cc(N2C[C@@H]3C[C@H]2CN3C)nc(N2C(=O)[C@@H](NC(=O)c3ccc(OC(F)F)cc3)[C@H](c3c(F)cc(OC)cc3F)[C@H]2C)c1 [Example 71]
5.7 nM | 1.9 nM | O=C(N[C@@H]1C(=O)N(c2cccn(CCC(F)(F)F)c2=O)C[C@H]1c1ccc(Cl)cc1)c1ccc(OC(F)F)cc1 [Example 72]
3.2 nM | 1.9 nM | O=C(N[C@@H]1C(=O)N(c2cccn(CCC(F)(F)F)c2=O)C[C@H]1c1ccc(Cl)cc1)c1ccc(OC(F)(F)F)cc1 [Example 73]
94 nM | 1.9 nM | COCCn1cccc(N2C(=O)[C@@H](NC(=O)c3ccc(Cl)cc3)[C@H](c3c(F)cc(OC)cc3F)[C@@H]2C)c1=O [Example 74]
2.8 nM | 2 nM | COc1ccc([C@@H]2CN(c3cccn(CCC(F)(F)F)c3=O)C(=O)[C@H]2NC(=O)c2ccc(OC(F)(F)F)cc2)c(F)c1 [Example 75]
170 nM | 2 nM | COc1cc(F)c([C@H]2[C@H](NC(=O)c3ccc(OC(F)F)cc3)C(=O)N(c3ncccc3OC)[C@H]2C)c(F)c1 [Example 77]
